From ChEMBL document CHEMBL5113542, “Highly Potent and Oral Macrocyclic Peptides as a HIV-1 Protease Inhibitor: mRNA Display-Derived Hit-to-Lead Optimization” (ACS Med Chem Lett, 2022)
Starred links: 1 amine or outer side, 2 acyl side, 3 side chain; linkers in the order of their positions; H or OH if unused. Positions of bridges follow the written chain, without caps; N, C: chain ends. Non-standard residues stand in square brackets, D forms with d. Residues, ends and D or L forms follow the SMILES beside them. X3 = O=C([C@H](CCC1=CCC(F)(F)CC1)N[*:1])[*:2]; Trp(1-Me) = Cn1cc(C[C@H](N)C(=O)O)c2ccccc21; 1Nal = N[C@@H](Cc1cccc2ccccc12)C(=O)O; NHCH2CH2SCH2CO = O=C(CSCCN[*:1])[*:2]; NMeF = CN[C@@H](Cc1ccccc1)C(=O)O; hCha = N[C@@H](CCC1CCCCC1)C(=O)O; hPhe = N[C@@H](CCc1ccccc1)C(=O)O; X1 = CC(C)(CN[*:1])SCC(=O)[*:2]; X2 = CC(C)(SCCN[*:1])C(=O)[*:2]; Pen = CC(C)(S)[C@H](N)C(=O)O; αMeV = CC(C)[C@](C)(N)C(=O)O; αMeP = C[C@@]1(C(=O)O)CCCN1

Legend:
[1] = test system: Human immunodeficiency virus 1; assay: Anti-HIV activity against HIV-1 3B strain infected in human MT4 cells assessed as inhibition of virus-induced cell death preincubated with compound for 1 hrs followed by viral infection and measured after 4 days by MTT assay; format: functional, organism-based; details: Human immunodeficiency virus 1, 3B
[2] = Metabolic stability in rat liver microsomes incubated for 30 mins in the presence of NADPH by LC-MS/MS analysis; format: ADME, Microsome; details: read-out: Stability
[3] = Unbound fraction in rat serum measured after 24 hrs by equilibrium dialysis based LC-MS/MS analysis; format: ADME, cell-free
[4] = Metabolic stability in human liver microsomes incubated for 30 mins in the presence of NADPH by LC-MS/MS analysis; format: ADME, Microsome; details: read-out: Stability
[5] = Volume of distribution at steady state in Sprague-Dawley rat at 2 umol/kg, po or 1 umol/kg, iv administered as single dose by LC-MS/MS analysis; format: ADME, organism-based; details: in vivo, dose 1 µmol/kg
[6] = target: Human immunodeficiency virus type 1 protease (Human immunodeficiency virus 1, UniProt Q72874); assay: Inhibition of HIV-1 protease using EDANS-RESGIFLETSKR-DABCYL as substrate preincubated for 15 mins followed by substrate addition and measured after 60 mins by fluorescence based assay
[7] = Half-life in Sprague-Dawley rat at 2 umol/kg, po or 1 umol/kg, iv administered as single dose by LC-MS/MS analysis; format: ADME, organism-based; details: in vivo, dose 2 µmol/kg
[8] = Metabolic stability in human liver S9 fraction incubated for 60 mins by LC-MS/MS analysis; format: ADME, subcellular; details: read-out: Stability
[9] = Oral bioavailability in Sprague-Dawley rat at 2 umol/kg administered as single dose by LC-MS/MS analysis; format: ADME, organism-based; details: in vivo, at 2 µmol/kg
[10] = Solubility of the compound at pH 6.8 incubated for 1 hrs in the presence of taurocholic acid by UHPLC/MS analysis; format: physicochemical; details: medium containing taurocholic acid

Compound | EC50 [1] [nM] | remaining at 0.5 h [2] [%] | fraction unbound at 24 h [3] | remaining at 0.5 h [4] [%] | Vdss [5] [L/kg] | IC50 [6] [nM] | half-life [7] [h] | remaining at 1 h [8] [%] | bioavailability [9] [%] | solubility at 1 h [10] [µM]
CC(C)C[C@@H]1NC(=O)[C@H](C(C)C)NC(=O)[C@]2(C)CCCN2C(=O)[C@H](C(C)C)NC(=O)[C@H](Cc2ccccc2)NC(=O)CSCCNC(=O)[C@H](C)NC(=O)[C@H](Cc2ccccc2)N(C)C(=O)[C@H](CC(C)C)NC(=O)[C@H](CCC2CCCCC2)NC1=O (cyclo(A[NHCH2CH2SCH2CO]FV[αMeP]VL[hCha]L[NMeF])) | 24 | 53 | 0.001 | 8 | 0.8 | 0.28 | 1.6 |  |  | 
CC(C)C[C@@H]1NC(=O)[C@H](C(C)C)NC(=O)[C@]2(C)CCCN2C(=O)[C@H](C(C)C)NC(=O)[C@H](Cc2ccccc2)NC(=O)CSCCNC(=O)CNC(=O)[C@H](Cc2ccccc2)N(C)C(=O)[C@H](CC(C)C)NC(=O)[C@H](CCC2CCCCC2)NC1=O (cyclo(FV[αMeP]VL[hCha]L[NMeF]G[NHCH2CH2SCH2CO])) | 29 |  |  |  |  | 0.37 |  | 85 |  | 
CC(C)C[C@@H]1NC(=O)[C@](C)(C(C)C)NC(=O)[C@@H]2CCCN2C(=O)[C@H](C(C)C)NC(=O)[C@H](Cc2ccccc2)NC(=O)CSCCNC(=O)[C@H](Cc2ccccc2)N(C)C(=O)[C@H](CC(C)C)NC(=O)[C@H](Cc2cccc3ccccc23)NC1=O (cyclo([1Nal]L[NMeF][NHCH2CH2SCH2CO]FVP[αMeV]L)) | 120 |  |  |  |  | 0.44 |  | 69 |  | 
CC(C)C[C@@H]1NC(=O)[C@H](C(C)C)NC(=O)[C@]2(C)CCCN2C(=O)[C@H](C(C)C)NC(=O)[C@H](Cc2ccccc2)NC(=O)CSC(C)(C)CNC(=O)[C@H](C)NC(=O)[C@H](Cc2ccccc2)N(C)C(=O)[C@H](CC(C)C)NC(=O)[C@H](CCC2CCCCC2)NC1=O (cyclo(A[X1]FV[αMeP]VL[hCha]L[NMeF])) | 11 | 60 | 0.001 | 20 | 0.7 | 0.62 | 2 |  | 0.2 | 
CC(C)C[C@@H]1NC(=O)[C@H](C(C)C)NC(=O)[C@]2(C)CCCN2C(=O)[C@H](C(C)C)NC(=O)[C@H](Cc2ccccc2)NC(=O)C(C)(C)SCCNC(=O)[C@H](C)NC(=O)[C@H](Cc2ccccc2)N(C)C(=O)[C@H](CC(C)C)NC(=O)[C@H](CCC2CCCCC2)NC1=O (cyclo(A[X2]FV[αMeP]VL[hCha]L[NMeF])) | 150 | 46 |  | 28 |  | 15.3 |  |  |  | 
COC(=O)[C@H]1NC(=O)[C@H](C)NC(=O)[C@H](Cc2ccccc2)N(C)C(=O)[C@H](CC(C)C)NC(=O)[C@H](CCC2CCCCC2)NC(=O)[C@H](CC(C)C)NC(=O)[C@H](C(C)C)NC(=O)[C@]2(C)CCCN2C(=O)[C@H](C(C)C)NC(=O)[C@H](Cc2ccccc2)NC(=O)CSC1(C)C ({CH2CO}-FV[αMeP]VL[hCha]L[NMeF]A[Pen]-OMe; thioether N-10) | 37 | 63 | 0.001 | 23 | 1.9 | 3.52 | 3.9 |  | 3.3 | 10
CC(C)C[C@@H]1NC(=O)[C@H](C(C)C)NC(=O)[C@]2(C)CCCN2C(=O)[C@H](C(C)C)NC(=O)[C@H](Cc2ccccc2)NC(=O)CSCCNC(=O)[C@H](Cc2ccccc2)N(C)C(=O)[C@H](CC(C)C)NC(=O)[C@H](CCc2ccccc2)NC1=O (cyclo(FV[αMeP]VL[hPhe]L[NMeF][NHCH2CH2SCH2CO])) | 28 |  |  |  |  | 0.45 |  |  |  | 
CC(C)C[C@@H]1NC(=O)[C@H](C(C)C)NC(=O)[C@]2(C)CCCN2C(=O)[C@H](C(C)C)NC(=O)[C@H](Cc2ccccc2)NC(=O)CSCCNC(=O)[C@H](CC(C)C)NC(=O)[C@H](Cc2ccccc2)N(C)C(=O)[C@H](CC(C)C)NC(=O)[C@H](CCC2CCCCC2)NC1=O (cyclo(FV[αMeP]VL[hCha]L[NMeF]L[NHCH2CH2SCH2CO])) | 62 |  |  |  |  | 2.3 |  |  |  | 
CC(C)C[C@@H]1NC(=O)[C@H](C(C)C)NC(=O)[C@@H]2CCCN2C(=O)[C@H](C(C)C)NC(=O)[C@H](Cc2ccccc2)NC(=O)CSCCNC(=O)[C@H](Cc2ccccc2)N(C)C(=O)[C@H](CC(C)C)NC(=O)[C@H](Cc2c[nH]c3ccccc23)NC1=O (cyclo(FVPVLWL[NMeF][NHCH2CH2SCH2CO])) | 610 |  |  |  |  | 8.05 |  |  |  | 
CC(C)C[C@@H]1NC(=O)[C@H](C(C)C)NC(=O)[C@@H]2CCCN2C(=O)[C@H](C(C)C)NC(=O)[C@H](Cc2ccccc2)NC(=O)CSCCNC(=O)[C@H](Cc2ccccc2)N(C)C(=O)[C@H](CC(C)C)NC(=O)[C@H](Cc2cn(C)c3ccccc23)NC1=O (cyclo(FVPVL[Trp(1-Me)]L[NMeF][NHCH2CH2SCH2CO])) | 1500 |  |  |  |  | 7.86 |  |  |  | 
CC(C)C[C@@H]1NC(=O)[C@H](C(C)C)NC(=O)[C@@H]2CCCN2C(=O)[C@H](C(C)C)NC(=O)[C@H](Cc2ccccc2)NC(=O)CSCCNC(=O)CNC(=O)[C@H](Cc2ccccc2)N(C)C(=O)[C@H](CC(C)C)NC(=O)[C@H](Cc2c[nH]c3ccccc23)NC1=O (cyclo(FVPVLWL[NMeF]G[NHCH2CH2SCH2CO])) | 960 | 29 | 0.011 | 3 | 0.1 | 0.99 | 0.7 | 23 |  | 26
CC(C)C[C@@H]1NC(=O)[C@H](C(C)C)NC(=O)[C@@H]2CCCN2C(=O)[C@H](C(C)C)NC(=O)[C@H](Cc2ccccc2)NC(=O)CSCCNC(=O)[C@H](Cc2ccccc2)N(C)C(=O)[C@H](CC(C)C)NC(=O)[C@H](Cc2cccc3ccccc23)NC1=O (cyclo([1Nal]L[NMeF][NHCH2CH2SCH2CO]FVPVL)) | 320 |  |  |  |  | 0.68 |  | 46 |  | 
CC(C)C[C@@H]1NC(=O)[C@H](C(C)C)NC(=O)[C@]2(C)CCCN2C(=O)[C@H](C(C)C)NC(=O)[C@H](Cc2ccccc2)NC(=O)CSCCNC(=O)[C@H](Cc2ccccc2)N(C)C(=O)[C@H](CC(C)C)NC(=O)[C@H](CCC2=CCC(F)(F)CC2)NC1=O (cyclo(FV[αMeP]VL[X3]L[NMeF][NHCH2CH2SCH2CO])) | 10 |  |  |  |  | 0.21 |  |  |  | 
CC(C)C[C@@H]1NC(=O)[C@H](C(C)C)NC(=O)[C@]2(C)CCCN2C(=O)[C@H](C(C)C)NC(=O)[C@H](Cc2ccccc2)NC(=O)CSCCNC(=O)[C@H](Cc2ccccc2)N(C)C(=O)[C@H](CC(C)C)NC(=O)[C@H](Cc2cccc3ccccc23)NC1=O (cyclo([1Nal]L[NMeF][NHCH2CH2SCH2CO]FV[αMeP]VL)) | 30 |  |  |  |  | 0.78 |  | 86 |  | 
CC(C)C[C@@H]1NC(=O)[C@H](C(C)C)NC(=O)[C@]2(C)CCCN2C(=O)[C@H](C(C)C)NC(=O)[C@H](Cc2ccccc2)NC(=O)CSCCNC(=O)[C@H](Cc2ccccc2)NC(=O)[C@H](Cc2ccccc2)N(C)C(=O)[C@H](CC(C)C)NC(=O)[C@H](CCC2CCCCC2)NC1=O (cyclo(FV[αMeP]VL[hCha]L[NMeF]F[NHCH2CH2SCH2CO])) | 56 |  |  |  |  | 2.32 |  |  |  | 
CC(C)C[C@@H]1NC(=O)[C@H](C(C)C)NC(=O)[C@]2(C)CCCN2C(=O)[C@H](C(C)C)NC(=O)[C@H](Cc2ccccc2)NC(=O)CSCCNC(=O)[C@H](Cc2ccccc2)N(C)C(=O)[C@H](CC(C)C)NC(=O)[C@H](CCC2CCCCC2)NC1=O (cyclo(FV[αMeP]VL[hCha]L[NMeF][NHCH2CH2SCH2CO])) | 12 |  |  |  |  | 0.29 |  |  |  | 
